According to paper PMC7889895, “Crystal structure of a photosynthetic LH1-RC in complex with its electron donor HiPIP” (Nature Communications, 2021):

Biological target: T1, HiPIP (Thermochromatium tepidum, UniProt P80176)
T1 construct: gene hip; native, purified from cells by DEAE chromatography in the reduced state; co-crystallised with native LH1-RC; with Photosynthetic reaction center cytochrome c subunit
Experiment: X-ray crystal structure of HiPIP:LH1-RC co-complex, […] Å
Type: binding
Conditions: pH 5; 4Fe-4S cluster ligated by Cys; HiPIP purified in reduced state; bound to LH1-RC

T1 sequence (P80176 whole entry, other chains not shown): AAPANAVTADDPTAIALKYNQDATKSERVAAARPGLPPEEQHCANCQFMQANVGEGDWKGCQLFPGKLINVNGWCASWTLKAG

[S]12[Fe]3[S]4[Fe]1[S]1[Fe]2[S]3[Fe]41 [4Fe-4S cluster]
X-ray crystal structure of HiPIP:LH1-RC co-complex, 2.9 Å: Fe atoms in both hemes and the 4Fe-4S cluster were clearly resolved
